Drawing on patent publication US12318367B2, “Pharmaceutical composition” (ASTRAZENECA AB, priority 2008, dated 2025), this text covers dissolution rate, bioavailability and BCS classification for two compounds.

In general, bioavailability refers to the share of a dose that reaches the circulation, judged against a reference dose that is usually intravenous.

The nature of data set [1]: Dissolution rate of the salt compared with free base and other salts. To be noted: compared to the free base form of the Agent and other salts. It counts as physicochemical.
A short description of data set [2]: Bioavailability of the salt compared with free base and other salts. It counts as in vivo. The following applies: compared to the free base form of the Agent and other salts.
A short description of data set [3]: Bioavailability of the free base form from a conventional tablet formulation. The following applies: dog, in vivo, oral, in dogs.
The nature of data set [4]: Biopharmaceutical Classification System (BCS) classification. It counts as physicochemical. To be noted: indicates low solubility/dissolution rate and low permeability.

Consider `Cn1cnc2c(F)c(Nc3ccc(Br)cc3Cl)c(C(=O)NOCCO)cc21` [Agent, 6-(4-bromo-2-chloro-phenylamino)-7-fluoro-3-methyl-3H-benzoimidazole-5-carboxylic acid (2-hydroxy-ethoxy)-amide], for which the dissolution rate entry in data set [1] is recorded as “particularly high”. Further, the bioavailability entry in data set [2] was “particularly high”.

As for `Cn1cnc2c(F)c(Nc3ccc(Br)cc3Cl)c(C(=O)NOCCO)cc21` [free-base form of the Agent, 6-(4-bromo-2-chloro-phenylamino)-7-fluoro-3-methyl-3H-benzoimidazole-5-carboxylic acid (2-hydroxy-ethoxy)-amide], in data set [3], the bioavailability was about 18%. The BCS classification entry in data set [4] is reported as “BCS Class 4”.
